Laboratory results reported in US20210128596A1, “COMPOSITIONS AND METHODS FOR TREATING SEPTIC CARDIOMYOPATHY” (UNIVERSITY OF PENNSYLVANIA, priority 2017, published 2021).

System: adult cardiomyocytes isolated from septic mice
Test: Mitotracker Red staining of adult cardiomyocytes isolated from septic mice
Assay type: in vivo, mouse
Details: adult cardiomyocytes isolated 12 hours post-CLP
Procedure: Adult mouse cardiomyocytes isolation-Adult mouse cardiomyocytes (ACMs) were isolated from ventricles of C57BL/6 mice 12 hours post-sham surgery, CLP surgery or combined performance of CLP and treatment with LGM2605 at 6 hours post-surgery. Hearts from heparinized mice (90 USP; ip) were cannulated through the aorta. Hearts were perfused with perfusion buffer (120.4 mMNaCl, 14.7 mM KCL, 0.6 mM NaH2PO4, 0.6 mM KH2PO4, 1.2 mM MgSO4, 10 mM Hepes, 4.6 mM NaHCO3, 30 mMtaurine, 10 mM BDM, 5.5 mM glucose; pH 7.4) for 3 min followed by digestion with perfusion buffer containing 19250 units Collagenese type II (Worthington), 5-6 mg trypsin and 0.02 mM CaCl2 for 7 min. Ventricles were gently […] into small pieces, perfusion buffer containing 5 mg/ml BSA and 0.125 mM CaCl2 was added and filtered with 100 μm nylon. The filtrate was pelleted by gravity for 5 min, centrifuged for 30 sec at 700 rpm and the pellet resuspended in perfusion buffer containing 5 mg/ml BSA and 0.225 mM CaCl2. The cells were pelleted by gravity for 10 min, centrifuged for 30 sec at 700 rpm and the pellet resuspended in perfusion buffer containing 5 mg/ml BSA and 0.525 mM CaCl2. […] Mitotracker Red fluorescence was recorded at 581 (excitation) and 644 nm (emission).

COc1cc(C[C@@H](CO[C@@H]2O[C@H](CO)[C@@H](O)[C@H](O)[C@H]2O)[C@H](CO[C@@H]2O[C@H](CO)[C@@H](O)[C@H](O)[C@H]2O)Cc2ccc(O)c(OC)c2)ccc1O [LGM2605, secoisolariciresinol diglucoside]
mitochondrial abundance (Mitotracker staining): prevents CLP-associated reduction in mitochondrial abundance
mitochondrial abundance (Mitotracker staining) (listed as SDG): restored mitochondrial abundance in vitro and in vivo
